Measured values reported in ChEMBL document CHEMBL5537135, “Novel antimicrobial peptides modified with fluorinated sulfono-γ-AA having high stability and targeting multidrug-resistant bacteria infections” (Eur J Med Chem, 2024).
Calls of active or inactive are those of the source. The calls are words filed in the database; no cut-off is given here. Numbered stars: 1 amine (or outer) side, 2 acyl side, 3 side chain; on linkers, the order of the positions; unused ones are H or OH. Square brackets hold non-standard residues; d marks the D form. Peptide text beside a SMILES is read from it. * marks the point of attachment. X3 = CC(C)C[C@@H](CN(CC(N)=O)S(=O)(=O)c1ccc(C(F)(F)F)cc1)N*; X2 = CC(C)C[C@H](N)CN(CC(=O)[*:2])[*:1]; X1 = O=S(=O)(c1ccc(C(F)(F)F)cc1)*

Legend:
[1] = system: Pseudomonas aeruginosa; assay: Synergistic antibacterial activity against multidrug-resistant Pseudomonas aeruginosa 124 assessed as fractional inhibitory concentration index in presence of ceftazidime by checkerboard assay; assay type: functional
[2] = system: Staphylococcus aureus; assay: Synergistic antibacterial activity against Staphylococcus aureus ATCC 33591 assessed as fractional inhibitory concentration index in presence of polymyxin B by checkerboard assay; assay type: functional
[3] = system: Staphylococcus aureus; assay: Synergistic antibacterial activity against methicillin-resistant Staphylococcus aureus S5 assessed as fractional inhibitory concentration index in presence of polymyxin B by checkerboard assay; assay type: functional
[4] = system: Cell membrane; assay: Induction of membrane disruption in Staphylococcus aureus ATCC 33591 assessed as membrane lysis at 2 to 4 times MIC incubated for 24 hrs by SEM analysis; assay type: cell membranes
[5] = system: Staphylococcus aureus; assay: Antibacterial activity against methicillin-resistant Staphylococcus aureus ATCC 33591 infected in full-thickness wound BALB/c mouse model assessed as reduction in IL-6 level in skin at 0.25 to 1 mg/kg, ip administered for 1 to 48 hrs and measured after 3 days; assay type: functional, organism-based; conditions: dose 0.25-1 mg/kg, time 1-120 hrs
[6] = system: Cell membrane; assay: Induction of membrane disruption in Staphylococcus aureus ATCC 33591 assessed as membrane blebbing at 2 to 4 times MIC incubated for 24 hrs by SEM analysis; assay type: cell membranes
[7] = system: Staphylococcus aureus; assay: Antibacterial activity against methicillin-resistant Staphylococcus aureus ATCC 33591 infected in full-thickness wound BALB/c mouse model at 0.25 to 1 mg/kg, ip administered for 1 to 48 hrs and measured after 3 days; assay type: functional, organism-based; conditions: dose 0.25-1 mg/kg, time 1-120 hrs
[8] = system: Pseudomonas aeruginosa; assay: Antibacterial activity against Pseudomonas aeruginosa ATCC 27853 infected in C57BL/6 mouse pneumonia model assessed as decrease in IL-6 level in lung at 2.5 to 10 mg/kg, ip administered for 1 to 48 hrs and measured after 3 days; assay type: functional, organism-based; conditions: dose 2.5-10 mg/kg, time 1-120 hrs
[9] = system: Staphylococcus aureus; assay: Antibacterial activity against methicillin-resistant Staphylococcus aureus ATCC 33591 infected in full-thickness wound BALB/c mouse model assessed as reduction in TNF-alpha level in skin at 0.25 to 1 mg/kg, ip administered for 1 to 48 hrs and measured after 3 days; assay type: functional, organism-based; conditions: dose 0.25-1 mg/kg, time 1-120 hrs
[10] = system: Cell membrane; assay: Induction of membrane disruption in Pseudomonas aeruginosa ATCC 27853 assessed as membrane shrinkage at 2 to 4 times MIC incubated for 24 hrs by SEM analysis; assay type: cell membranes
[11] = system: Pseudomonas aeruginosa; assay: Additive antibacterial activity against multidrug-resistant Pseudomonas aeruginosa 124 assessed as fractional inhibitory concentration index in presence of polymyxin B by checkerboard assay; assay type: functional
[12] = system: Pseudomonas aeruginosa; assay: Antibacterial activity against Pseudomonas aeruginosa ATCC 27853 infected in C57BL/6 mouse pneumonia model assessed as log reduction in bacterial load in lung at 5 mg/kg, ip administered for 1 to 48 hrs and measured after 3 days; assay type: functional; conditions: time 1-120 hrs
[13] = Toxicity in mouse assessed as kidney lesion at 20 mg/kg, ip measured for 30 to 60 mins by H and E staining based analysis; assay type: organism-based; conditions: in vivo, time 30-60 min
[14] = system: Staphylococcus aureus; assay: Antibacterial activity against methicillin-resistant Staphylococcus aureus ATCC 33591 infected in full-thickness wound BALB/c mouse model assessed as wound healing at 0.25 to 1 mg/kg, ip administered for 1 to 48 hrs and measured after 10 days; assay type: functional, organism-based; conditions: dose 0.25-1 mg/kg, time 1-288 hrs
[15] = system: Pseudomonas aeruginosa; assay: Antibacterial activity against Pseudomonas aeruginosa ATCC 27853 infected in C57BL/6 mouse pneumonia model assessed as […] at 2.5 to 10 mg/kg, ip administered for 1 to 48 hrs and measured after 3 days by H and E staining based analysis; assay type: functional, organism-based; conditions: dose 2.5-10 mg/kg, time 1-120 hrs
[16] = Toxicity in mouse assessed as animal survival at 20 mg/kg, ip measured for 7 days; assay type: organism-based; conditions: in vivo, 168 h, time 7 day
[17] = system: Cell membrane; assay: Induction of membrane disruption in Pseudomonas aeruginosa ATCC 27853 assessed as membrane blebbing at 2 to 4 times MIC incubated for 24 hrs by SEM analysis; assay type: cell membranes
[18] = Toxicity in mouse assessed as lung lesion at 20 mg/kg, ip measured for 30 to 60 mins by H and E staining based analysis; assay type: organism-based; conditions: in vivo, time 30-60 min
[19] = system: Cell membrane; assay: Induction of membrane disruption in Staphylococcus aureus ATCC 33591 assessed as membrane shrinkage at 2 to 4 times MIC incubated for 24 hrs by SEM analysis; assay type: cell membranes
[20] = Toxicity in mouse assessed as liver lesion at 20 mg/kg, ip measured for 30 to 60 mins by H and E staining based analysis; assay type: organism-based; conditions: in vivo, time 30-60 min
[21] = system: Cell membrane; assay: Induction of membrane disruption in Pseudomonas aeruginosa ATCC 27853 assessed as membrane lysis at 2 to 4 times MIC incubated for 24 hrs by SEM analysis; assay type: cell membranes

CC(C)C[C@@H](CN(CC(N)=O)S(=O)(=O)c1ccc(C(F)(F)F)cc1)NC(=O)[C@H](CCCCN)NC(=O)[C@H](CCCCN)NC(=O)[C@H](CC(C)C)NC(=O)[C@H](CC(C)C)NC(=O)[C@H](CCCCN)NC(=O)[C@H](CC(C)C)NC(=O)[C@@H](N)Cc1ccccc1 (H-FLKLLKK-X3)
fractional inhibitory concentration index (FICI) [1]: 0.75
fractional inhibitory concentration index (FICI) [2]: 0.5
fractional inhibitory concentration index (FICI) [3]: 0.75

CC(C)C[C@H](N)CN(CC(=O)N[C@@H](CCCCN)C(=O)N[C@@H](CC(C)C)C(=O)N[C@@H](CC(C)C)C(=O)N[C@@H](CCCCN)C(=O)N[C@@H](CCCCN)C(=O)N[C@@H](CC(C)C)C(=O)N[C@@H](CC(C)C)C(N)=O)S(=O)(=O)c1ccc(C(F)(F)F)cc1 (X1-[X2]KLLKKLL-NH2)
Activity [4]: Active
Activity [5]: Active
Activity [6]: Active
Activity [7]: Active
Activity [8]: Active
Activity [9]: Active
Activity [10]: Active
fractional inhibitory concentration index (FICI) [11]: 0.5
log(activity) [12]: 4.51
Activity [13]: Non-Toxic
Activity [14]: Active
Activity [15]: Active
Activity [16]: Non-Toxic
Activity [17]: Active
Activity [18]: Non-Toxic
Activity [19]: Active
Activity [20]: Non-Toxic
Activity [21]: Active
